Test results from ChEMBL document CHEMBL4118097, “Selective Inhibitors of Dual Leucine Zipper Kinase (DLK, MAP3K12) with Activity in a Model of Alzheimer's Disease” (J Med Chem, 2017).

Tests used:
MDR1 (P-gp), human [1] = assay: Permeability from apical side to basolateral side in MDCK1 cells harboring human MDR1; assay type: ADME, cell-based, Canis lupus familiaris; details: dog, MDCK-MDR1; read-out: permeability
[2] = target: T1, Mitogen-activated protein kinase kinase kinase 12 (Homo sapiens, UniProt Q12852); assay: Inhibition of doxycycline inducible human DLK transfected in HEK293 cells assessed as JNK phosphorylation after […] by Hoechst-33342 staining-based assay; assay type: cell-based
T1 sequence (Q12852 whole entry): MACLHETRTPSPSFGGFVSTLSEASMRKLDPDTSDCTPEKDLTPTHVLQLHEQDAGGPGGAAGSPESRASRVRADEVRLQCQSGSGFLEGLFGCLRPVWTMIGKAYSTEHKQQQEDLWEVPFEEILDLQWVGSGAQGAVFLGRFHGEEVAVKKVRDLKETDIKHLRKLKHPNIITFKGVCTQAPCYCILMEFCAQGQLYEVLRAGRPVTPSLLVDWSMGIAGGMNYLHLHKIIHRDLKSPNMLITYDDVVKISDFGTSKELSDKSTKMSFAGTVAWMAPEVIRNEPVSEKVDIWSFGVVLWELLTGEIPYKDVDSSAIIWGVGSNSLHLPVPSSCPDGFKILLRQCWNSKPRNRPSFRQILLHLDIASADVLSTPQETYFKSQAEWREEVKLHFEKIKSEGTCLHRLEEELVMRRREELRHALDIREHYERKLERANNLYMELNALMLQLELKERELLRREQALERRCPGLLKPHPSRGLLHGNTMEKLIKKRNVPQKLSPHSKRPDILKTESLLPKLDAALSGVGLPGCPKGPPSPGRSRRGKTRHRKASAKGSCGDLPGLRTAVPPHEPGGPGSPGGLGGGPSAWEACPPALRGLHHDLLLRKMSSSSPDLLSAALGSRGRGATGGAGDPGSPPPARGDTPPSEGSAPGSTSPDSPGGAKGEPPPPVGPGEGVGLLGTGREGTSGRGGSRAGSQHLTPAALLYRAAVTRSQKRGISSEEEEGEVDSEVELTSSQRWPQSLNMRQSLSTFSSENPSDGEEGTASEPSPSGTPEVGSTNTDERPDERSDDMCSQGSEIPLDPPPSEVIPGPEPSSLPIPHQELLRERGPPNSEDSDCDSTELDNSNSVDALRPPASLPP

MDR1 (P-gp), human [3] = assay: Efflux ratio of permeability from basolateral to apical side over apical to basolateral side in MDCK cells harboring human MDR1; assay type: ADME, cell-based, Canis lupus familiaris; details: dog
[4] = target: T1, Mitogen-activated protein kinase kinase kinase 12; assay: Binding affinity to N-terminally GST-tagged wild type human DLK (1 to 520 residues) expressed in sf21 insect cells using N-terminally His-tagged MKK4 K131M as substrate after 60 mins in presence of ATP by TR-FRET assay

Row | Papp A→B (MDR1 (P-gp), human [1]) [×10⁻⁶ cm/s] | IC50 [2] [nM] | efflux ratio (MDR1 (P-gp), human [3]) | Ki [4] [nM] | SMILES
1 | 7.9 | 611 | 0.3 | – | CC(C)n1nc(-c2cnc(N)c(C(F)(F)F)c2)cc1[C@H]1[C@@H]2CN(CC(F)F)C[C@@H]21
2 | – | 274 | – | 5 | CC(C)n1nc(-c2cnc(N)c(C(F)(F)F)c2)cc1[C@H]1[C@@H]2CN(CC3COC3)C[C@@H]21
3 | – | 208 | – | 4 | CC(O)CN1C[C@@H]2[C@H](C1)[C@H]2c1cc(-c2cnc(N)c(C(F)(F)F)c2)nn1C(C)C (some centres undefined)
4 | – | – | – | > 1600 | Cc1cc(-c2cc(C3CCN(C4COC4)CC3)n(C(C)C)n2)cnc1N
5 | – | 873 | – | 7 | COc1cc(-c2cc([C@H]3[C@@H]4CN(C5COC5)C[C@@H]43)n(C(C)C)n2)cnc1N
6 | – | 302 | – | 6 | CC(=O)N1C[C@@H]2[C@H](C1)[C@H]2c1cc(-c2cnc(N)c(C(F)(F)F)c2)nn1C(C)C
7 | – | 485 | – | – | CC(C)n1nc(-c2cnc3[nH]cc(C(F)(F)F)c3c2)cc1C1CCN(C2COC2)CC1
8 | – | 2800 | – | – | CC(C)n1nc(-c2cnc3[nH]cc(F)c3c2)cc1C1CCN(C2COC2)CC1
9 | – | 1800 | – | 82 | Cn1nc(-c2cnc(N)c(C(F)(F)F)c2)cc1[C@H]1[C@@H]2CN(C3COC3)C[C@@H]21
10 | – | 265 | – | 9 | COCCN1C[C@@H]2[C@H](C1)[C@H]2c1cc(-c2cnc(N)c(C(F)(F)F)c2)nn1C(C)C
11 | – | 202 | – | 9 | Nc1ncc(-c2cc([C@H]3[C@@H]4CN(C5COC5)C[C@@H]43)n(CC3CCCC3)n2)cc1C(F)(F)F
12 | – | 303 | – | 4 | Cc1c[nH]c2ncc(-c3cc(C4CCN(C5COC5)CC4)n(C(C)C)n3)cc12
13 | – | 829 | – | 23 | CC(C)(O)Cn1nc(-c2cnc(N)c(C(F)(F)F)c2)cc1[C@H]1[C@@H]2CN(C3COC3)C[C@@H]21
14 | – | 574 | – | – | CC(C)n1nc(-c2cnc3[nH]cc(Cl)c3c2)cc1C1CCN(C2COC2)CC1
15 | – | 1200 | – | – | CC(C)n1nc(-c2cnc(N)c(C(F)F)c2)cc1[C@H]1[C@@H]2CN(C3COC3)C[C@@H]21
16 | – | 1700 | – | – | CC(C)n1nc(-c2cnc(N)c(Cl)c2)cc1C1CCN(C2COC2)CC1
17 | – | 406 | – | 3 | CCn1nc(-c2cnc(N)c(C(F)(F)F)c2)cc1[C@H]1[C@@H]2CN(C3COC3)C[C@@H]21
18 | – | 1300 | – | 67 | Cn1nc(-c2cnc(N)c(OC(F)(F)F)c2)cc1[C@H]1[C@@H]2CN(C3COC3)C[C@@H]21
19 | – | 99 | – | 3 | CC(C)Cn1nc(-c2cnc(N)c(C(F)(F)F)c2)cc1[C@H]1[C@@H]2CN(C3COC3)C[C@@H]21
20 | – | 1900 | – | – | CC(C)n1nc(-c2cnc(N)c(C(F)(F)F)c2)cc1C1CCN(C2COC2)CC1
21 | – | 328 | – | – | CC(C)n1nc(-c2cnc(N)c(OC(F)F)c2)cc1[C@H]1[C@@H]2CN(C3COC3)C[C@@H]21
22 | – | 180 | – | 16 | Nc1ncc(-c2cc([C@H]3[C@@H]4CN(C5COC5)C[C@@H]43)n(CC(F)(F)F)n2)cc1C(F)(F)F
23 | – | 304 | – | 3 | Nc1ncc(-c2cc([C@H]3[C@@H]4CN(C5COC5)C[C@@H]43)n(CC3CC3)n2)cc1OC(F)(F)F
